Here are results for 51 compounds from ChEMBL document CHEMBL4610056, “Development of novel small molecules for the treatment of ALS” (Bioorg Med Chem Lett, 2020).

Assay [1] can be described thus: Activation of NF-kappaB (unknown origin). More on the design: species or system Homo sapiens.
A short description of assay [2]: Activation of NF-kappaB (unknown origin) relative to control. To be noted: Homo sapiens.
For a further assay, the species on record is Homo sapiens. The assay is described as follows: Potency index, ratio of SRI-22818 EC50 to test compound EC50 for activation of NF-kappaB (unknown origin).

The structures appear in SMILES notation.

As for `O=C(Nc1ccc2c(c1)OCO2)c1ccn(-c2ccccc2F)c1`, the EC50 (usually the concentration that produces a half-maximal response) in assay [1] (read-out: EC50) came to 11.3 µM. Also, the Emax – broadly, the size of the effect at its maximum, as opposed to the concentration needed – in assay [2] stood at 34%. The corresponding values for `O=C(/C=C\Nc1ncccc1F)c1ccccn1` are 0.9 µM and 14%. As to `O=C(c1ccc2c(c1)OCO2)c1ccccc1Nc1ccccc1Br`, the half-maximal effective concentration (EC50) entry in assay [1] is on record as “Not Active”.

For the compound `COc1ccc(C(=O)c2c[nH]c3cc(Br)ccc23)cc1OC`, the EC50 entry in assay [1] is listed as “Not Active”. Turning to `O=C(c1ccc(F)c(F)c1)c1c[nH]c2cc(Br)ccc12`, in assay [1], the EC50 entry is “Not Active”.

For the compound `O=C(/C=C\Nc1ccccc1F)c1ccc2c(c1)OCO2`, the 50% effective concentration (EC50) in assay [1] (read-out: EC50) is 0.32 µM. In addition, in assay [2], the Emax worked out at 22%.

For the compound `O=C(c1ccc2c(c1)OCO2)c1c[nH]c2c(Br)cccc12`, the EC50 in assay [1] (read-out: EC50) came out at 21.4 µM. Besides, the Emax in assay [2] worked out at 18%. The corresponding values for `COc1ccccc1N/C=C\C(=O)c1ccccn1` are 0.2 µM and 8%. The corresponding values for `O=C(/C=C\Nc1ccccc1C(F)(F)F)c1ccc2c(c1)OCO2` are 3.1 µM and 8%. As for `O=C(c1ccc(Cl)c(Cl)c1)c1c[nH]c2cc(Br)ccc12`, the EC50 entry in assay [1] is “Not Active”. In the case of `O=C(/C=C\Nc1ncccc1C(F)(F)F)c1ccc2c(c1)OCO2`, the EC50 in assay [1] (read-out: EC50) is 0.8 µM. In assay [2], this compound came in with an Emax of 23%. Take `O=C(c1ccc2c(c1)OCO2)c1c[nH]c2c(F)cccc12`: in assay [1] (read-out: EC50), the concentration giving a half-maximal response (EC50) is 13.4 µM. This compound also had an Emax in assay [2] of 18%. With `O=C(/C=C\Nc1ncccc1F)c1ccc2c(c1)OCO2`, in assay [1] (read-out: EC50), the EC50 was found to be 0.1 µM. The Emax in assay [2] is 17%. In addition, the Ratio EC50 in the assay listed under Homo sapiens stood at 5.

As to `O=C(/C=C\Nc1ncccc1C(F)(F)F)c1ccccn1`, the EC50 in assay [1] (read-out: EC50) worked out at 0.7 µM. Besides, the Emax in assay [2] was 16%.

In the case of `O=C(/C=C\Nc1ccccc1Cl)c1ccc2c(c1)OCO2`, the EC50 in assay [1] (read-out: EC50) stood at 0.5 µM. This compound also showed an Emax in assay [2] of 24%. The corresponding values for `COc1cccnc1N/C=C\C(=O)c1ccc2c(c1)OCO2` are 3.3 µM and 12%.

On to `O=C(c1ccc2c(c1)OCO2)c1c[nH]c2cnccc12`, for which the EC50 result in assay [1] was “Not Active”. Consider `O=C(c1ccc2c(c1)OCO2)c1ccn(-c2ccc(F)cc2)c1`, for which, in assay [1] (read-out: EC50), the EC50 was determined as 12.9 µM. The compound further came in with an Emax in assay [2] of 13.2%. The corresponding values for `O=C(c1ccc2c(c1)OCO2)c1c[nH]c2cc(Cl)ccc12` are 1.2 µM and 13.2%. The corresponding values for `O=C(c1ccc2c(c1)OCO2)c1c[nH]c2cc(F)ccc12` are 4.4 µM and 8.6%. `Cc1ccc(C(=O)c2c[nH]c3cc(Br)ccc23)cc1C`: the concentration for a half-maximal effect (EC50) entry in assay [1] was “Not Active”. Consider `O=C(c1ccc2c(c1)OCO2)c1c[nH]c2cc(Br)ccc12`, for which, in assay [1] (read-out: EC50), the EC50 was found to be 1 µM. The Emax in assay [2] turned out to be 11.2%. For `O=C(c1ccc2c(c1)OCO2)c1c[nH]c2cccc(Br)c12`, the EC50 entry in assay [1] is given as “Not Active”. As to `Cc1ccccc1N/C=C\C(=O)c1ccccn1`, the EC50 in assay [1] (read-out: EC50) worked out at 0.3 µM. This compound had an Emax in assay [2] of 17%.

For `O=C(c1ccc2c(c1)OCO2)c1ccn(-c2ccccc2F)c1`, the EC50 in assay [1] (read-out: EC50) was 3.21 µM. In addition, the Emax in assay [2] was determined as 12.5%. For the compound `O=C(c1ccncc1)c1c[nH]c2c(Br)cccc12`, in assay [1], the EC50 result is reported as “Not Active”. As to `Cc1ccc(C(=O)c2ccn(-c3ccccc3F)c2)cc1C`, in assay [1] (read-out: EC50), the EC50 was determined as 11.9 µM. In addition, the Emax in assay [2] was 19.9%.

With `O=C(/C=C\Nc1ccccc1Cl)c1ccccn1`, the EC50 result in assay [1] is on record as “Not Active”. Consider `Cc1cccnc1N/C=C\C(=O)c1ccc2c(c1)OCO2`, for which, in assay [1] (read-out: EC50), the EC50 was 0.3 µM. This compound also displayed an Emax in assay [2] of 22%. On to `O=C(c1ccccn1)c1c[nH]c2c(Br)cccc12`, for which, in assay [1], the EC50 result is given as “Not Active”. As to `Cc1ccccc1N/C=C\C(=O)c1ccc2c(c1)OCO2`, the EC50 in assay [1] (read-out: EC50) came out at 0.8 µM. The compound also yielded an Emax in assay [2] of 24%.

As for `Fc1ccccc1-n1ccc(CNc2ccc3c(c2)OCO3)c1`, the EC50 in assay [1] (read-out: EC50) is 15 µM. The compound also had an Emax in assay [2] of 10.4%. As to `O=C(c1ccc(F)c(F)c1)c1ccn(-c2ccccc2F)c1`, the EC50 in assay [1] (read-out: EC50) is 5.84 µM. Also, the Emax in assay [2] is 13%.

For the compound `Cc1ccccc1-n1ccc(C(=O)c2ccc3c(c2)OCO3)c1`, the EC50 in assay [1] (read-out: EC50) was 22.4 µM. In assay [2], this compound returned an Emax of 10%.

On to `O=C(c1ccc(Cl)c(Cl)c1)c1ccn(-c2ccccc2F)c1`, for which, in assay [1] (read-out: EC50), the EC50 was determined as 7.71 µM. This compound registered an Emax in assay [2] of 8.3%. The corresponding values for `O=C(/C=C\Nc1ccccc1Br)c1ccc2c(c1)OCO2` are 0.5 µM and 26%. The corresponding values for `O=C(c1ccc2c(c1)OCO2)c1ccn(-c2cccc(F)c2)c1` are 17.7 µM and 13.8%. For the compound `O=C(/C=C\Nc1ccccc1Br)c1ccccn1`, the EC50 result in assay [1] is “Not Active”.

Turning to `O=C(/C=C\Nc1ccccc1C(F)(F)F)c1ccccn1`, in assay [1] (read-out: EC50), the EC50 turned out to be 1.4 µM. The Emax in assay [2] worked out at 16%.

Regarding `O=C(/C=C\Nc1ccccc1)c1ccc2c(c1)OCO2`, the EC50 in assay [1] (read-out: EC50) is 0.4 µM. In addition, in assay [2], the Emax was 11%. Turning to `Cc1cccc2c(C(=O)c3ccc4c(c3)OCO4)c[nH]c12`, the EC50 in assay [1] (read-out: EC50) is 43.2 µM. The compound also came in with an Emax in assay [2] of 23%. As for `O=C(c1ccccc1)c1c[nH]c2c(Br)cccc12`, the EC50 entry in assay [1] was “Not Active”. Same read-out and setting: with `O=C(c1ccc2c(c1)OCO2)c1ccn(-c2ccccc2Br)c1` the entry was “Not Active”. Turning to `O=C(c1ccc2c(c1)OCO2)c1c[nH]c2ccc(Br)cc12`, the EC50 in assay [1] (read-out: EC50) was 4.5 µM. This compound displayed an Emax in assay [2] of 3%. The corresponding values for `COc1ccccc1N/C=C\C(=O)c1ccc2c(c1)OCO2` are 3.9 µM and 14%.

As to `COc1cccnc1N/C=C\C(=O)c1ccccn1`, the EC50 in assay [1] (read-out: EC50) amounted to 0.3 µM. This compound showed an Emax in assay [2] of 24%. As to `Cn1cc(C(=O)c2ccc3c(c2)OCO3)c2cccc(Br)c21`, in assay [1], the EC50 entry is “Not Active”. On the same count and under the same terms, for `O=C(CCNc1ccccc1Br)c1ccc2c(c1)OCO2` the value was “Not Active”. In the case of `O=C(/C=C\Nc1ccccc1F)c1ccccn1`, the EC50 in assay [1] (read-out: EC50) worked out at 1 µM. In assay [2], this compound had an Emax of 20%. The corresponding values for `Cc1cccnc1N/C=C\C(=O)c1ccccn1` are 0.9 µM and 22%. The corresponding values for `O=C(c1ccc2c(c1)OCO2)c1ccn(-c2ccccc2Cl)c1` are 7.8 µM and 15.1%.
